For experiment [1], the target named is T1, FLT3-D835Y (Homo sapiens, UniProt P36888, D835Y).
T1 construct: purchased Invitrogen PV3967
T1 sequence (P36888 27-993 D835Y): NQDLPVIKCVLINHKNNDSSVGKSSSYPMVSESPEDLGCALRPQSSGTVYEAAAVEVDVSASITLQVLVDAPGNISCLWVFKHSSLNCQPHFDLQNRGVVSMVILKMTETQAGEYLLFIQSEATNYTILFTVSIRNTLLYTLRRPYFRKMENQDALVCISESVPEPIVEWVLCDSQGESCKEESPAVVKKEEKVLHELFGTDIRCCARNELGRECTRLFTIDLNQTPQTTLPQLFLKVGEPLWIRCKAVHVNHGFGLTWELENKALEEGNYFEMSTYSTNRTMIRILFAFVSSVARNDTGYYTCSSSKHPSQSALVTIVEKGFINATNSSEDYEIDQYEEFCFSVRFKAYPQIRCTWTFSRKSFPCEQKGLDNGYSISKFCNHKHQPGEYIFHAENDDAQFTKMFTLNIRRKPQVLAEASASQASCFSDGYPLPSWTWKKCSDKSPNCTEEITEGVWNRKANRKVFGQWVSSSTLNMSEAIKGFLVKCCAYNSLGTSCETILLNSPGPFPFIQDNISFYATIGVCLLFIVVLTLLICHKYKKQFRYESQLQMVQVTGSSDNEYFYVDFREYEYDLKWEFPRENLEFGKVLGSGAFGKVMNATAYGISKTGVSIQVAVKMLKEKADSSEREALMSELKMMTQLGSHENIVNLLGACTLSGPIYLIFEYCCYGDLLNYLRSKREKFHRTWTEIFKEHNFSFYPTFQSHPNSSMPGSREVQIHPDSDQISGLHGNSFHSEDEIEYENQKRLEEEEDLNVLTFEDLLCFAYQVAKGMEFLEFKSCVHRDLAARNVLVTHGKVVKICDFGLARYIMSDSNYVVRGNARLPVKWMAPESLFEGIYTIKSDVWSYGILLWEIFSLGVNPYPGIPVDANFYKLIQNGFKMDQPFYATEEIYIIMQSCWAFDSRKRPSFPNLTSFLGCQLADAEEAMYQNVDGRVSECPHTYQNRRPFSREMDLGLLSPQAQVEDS
Description: FLT3-D835Y biochemical kinase assay (AlphaScreen). In short, it runs like this: (§1)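 AlphaScreen read-out of tyrosine phosphorylation of a 30 nM biotinylated poly(Glu4-Tyr) substrate, captured on streptavidin donor and PY20 acceptor beads at room temperature. ATP for IC50 work was 100 μM with FLT3-ITD and 10 μM with FLT3-D835Y; reduced 580 nm proximity signal reflects kinase inhibition.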

Experiment [2] addresses T2, BA/F3-FLT3-ITD + F691L cells (Homo sapiens, UniProt P36888, F691L, cells depend on it, form not given).
T2 sequence (P36888 1-993 F691L): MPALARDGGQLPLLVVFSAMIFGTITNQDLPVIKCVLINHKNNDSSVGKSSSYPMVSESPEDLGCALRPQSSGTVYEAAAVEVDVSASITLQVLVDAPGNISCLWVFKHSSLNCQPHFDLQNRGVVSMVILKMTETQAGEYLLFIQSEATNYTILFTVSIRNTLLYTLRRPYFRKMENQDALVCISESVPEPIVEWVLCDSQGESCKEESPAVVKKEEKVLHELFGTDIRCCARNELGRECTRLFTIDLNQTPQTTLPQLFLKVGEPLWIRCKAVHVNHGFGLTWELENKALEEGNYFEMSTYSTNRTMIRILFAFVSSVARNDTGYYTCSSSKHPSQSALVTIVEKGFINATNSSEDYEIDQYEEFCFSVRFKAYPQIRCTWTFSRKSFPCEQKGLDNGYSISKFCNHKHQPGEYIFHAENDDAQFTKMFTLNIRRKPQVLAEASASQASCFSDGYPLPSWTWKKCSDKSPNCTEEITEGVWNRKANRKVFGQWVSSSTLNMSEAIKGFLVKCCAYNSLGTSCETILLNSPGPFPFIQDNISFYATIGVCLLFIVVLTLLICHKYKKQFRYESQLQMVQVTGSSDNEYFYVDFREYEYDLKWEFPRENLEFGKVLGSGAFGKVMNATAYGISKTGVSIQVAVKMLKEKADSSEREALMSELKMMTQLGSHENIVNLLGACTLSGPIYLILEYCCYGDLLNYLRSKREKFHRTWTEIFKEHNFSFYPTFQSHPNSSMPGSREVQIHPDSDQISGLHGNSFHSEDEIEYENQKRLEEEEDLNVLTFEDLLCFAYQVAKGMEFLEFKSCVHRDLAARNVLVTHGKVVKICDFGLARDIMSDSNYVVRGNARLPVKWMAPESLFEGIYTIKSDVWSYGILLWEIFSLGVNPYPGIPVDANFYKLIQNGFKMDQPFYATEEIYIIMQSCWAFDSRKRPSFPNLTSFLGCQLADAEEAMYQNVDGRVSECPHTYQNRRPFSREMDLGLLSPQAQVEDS
Description: BA/F3-FLT3-ITD + F691L cell proliferation assay (CellTiter-Glo). Type of experiment: cell-based, murine. To be noted: BaF3 FLT3 ITD/F691L cells; read-out: Cell Activity (IC50 μM) BaF3_FLT3_ITD/F691L. The source says: The FLT3 inhibitors may also be assessed using leukemia cell lines that express endogenous FLT3-ITD or cells that are engineered to express wild-type or mutant FLT3. The cells expressing endogenous FLT3 are dependent upon FLT3 catalytic activity for growth. For the engineered cells, murine BA/F3 cells were transfected with full-length FLT3 (either wild-type, or containing the ITD, D835Y, or F691L mutations, as noted). The parental BA/F3 cells are dependent upon Interleukin-3 (IL-3) for survival, and introduction of the FLT3 constructs renders these cells dependent upon FLT3 kinase activity when cultured in the absence of IL-3. Engineered BA/F3 cell growth assays can be performed in either the absence or presence of IL-3, to assess the compound inhibition of FLT3 or to detect the presence of off-target activity, respectively. Inhibitors of FLT3 kinase activity reduce or eliminate the FLT3 oncogenic signaling, resulting in reduced cell proliferation. This inhibition is measured as a function of compound concentration to assess IC50 values.
Cells were seeded at 1×10^4 cells per well of a 96 well cell culture plate in 50 μl of cell culture medium. Compounds were dissolved in DMSO, typically at a concentration of 5 mM and were serially diluted 1:3 for a total of eight points and added to the cells to final concentrations of 10, 3.3, 1.1, 0.37, 0.12, 0.041, 0.014 and 0.0046 μM in 100 μl cell culture medium (final concentration 0.2% DMSO). […] The cells were incubated at 37° C., 5% CO2 for three days. CellTiter-Glo Buffer (Promega Cell Viability Assay catalog #G7573) and substrate were equilibrated to room temperature, and enzyme/substrate Recombinant Firefly Luciferase/Beetle Luciferin was reconstituted. The cell plates were equilibrated to room temperature for 30 minutes, then lysed by addition of an equivalent volume of the Celltiter-Glo Reagent. The plate was mixed for 10 minutes on a plate shaker to lyse the cells. The plates were read on a Tecan M1000 using Luminescence protocol modified to read 0.1 s per well. The luminescence reading assesses the ATP content, which correlates directly with cell number such that the reading as a function of compound concentration was used to determine the IC50 value.
(In general: ATP-based viability assays read luminescence as a measure of living cells.)

The target of experiment [3] is T3, FLT3-ITD (Homo sapiens, UniProt P36888).
T3 construct: FLT3-ITD; Invitrogen #PV6190
T3 sequence (P36888 1-993): T2 sequence (P36888 1-993 F691L) with L691F
The experiment can be described thus: FLT3-ITD biochemical kinase assay (AlphaScreen). The procedure, abridged: as §1
A general note: Bead proximity is the source of the signal in Alpha formats.

Changes are numbered by the printed parent chain.

One may read the IC50 as the point on the concentration scale where inhibition reaches its midpoint. Lower therefore signals greater potency.

In turn, `c1cc(-c2cnc3[nH]cc(-c4ccc5ncn(C6CCCNC6)c5c4)c3n2)cc(N2CCOCC2)c1` (centres unmarked) [P-303, 4-[3-[7-[3-(3-piperidyl)benzimidazol-5-yl]-5H-pyrrolo[2,3-b]pyrazin-2-yl]phenyl]morpholine] registered an IC50 in experiment [1] of 0.0001 to 1 µM. For the same molecule, the GI50 in experiment [2] lay in the range of 0.0001 to 1 µM.
In turn, `N#Cc1cc(-c2cnc3[nH]cc(-c4ccc5ncn(C6CCCNC6)c5c4)c3n2)ccn1` (centres unmarked) [P-304, 4-[7-[3-(3-piperidyl)benzimidazol-5-yl]-5H-pyrrolo[2,3-b]pyrazin-2-yl]pyridine-2-carbonitrile] registered a concentration for half-maximal inhibition (IC50) in experiment [1] of 0.0001 to 1 µM. For the same molecule, the GI50 in experiment [2] fell in the range of 0.0001 to 1 µM.
On to `CN1CCN(c2ccc(-c3cnc4[nH]cc(-c5ccc6ncn(C(C)(C)C)c6c5)c4n3)cn2)CC1` [P-333, 7-(3-tert-butylbenzimidazol-5-yl)-2-[6-(4-methylpiperazin-1-yl)-3-pyridyl]-5H-pyrrolo[2,3-b]pyrazine], for which the 50% inhibitory concentration (IC50) in experiment [3] was in the range of 0.0001 to 1 µM. In addition, the GI50 in experiment [2] was 0.0001 to 1 µM.
Take `CC(C)(C)n1cnc2ccc(-c3c[nH]c4ncc(-c5ccc(N6CCOCC6)cc5)cc34)cc21` [P-299, 4-[4-[3-(3-tert-butylbenzimidazol-5-yl)-1H-pyrrolo[2,3-b]pyridin-5-yl]phenyl]morpholine]: the IC50 in experiment [1] was 0.0001 to 1 µM. In addition, the GI50 in experiment [2] fell in the range of 0.0001 to 1 µM.
Take `c1cc(-c2cnc3[nH]cc(-c4ccc5ncn(C6CCCNC6)c5c4)c3n2)cc(N2CCNCC2)n1` (centres unmarked) [P-308, 2-(2-piperazin-1-yl-4-pyridyl)-7-[3-(3-piperidyl)benzimidazol-5-yl]-5H-pyrrolo[2,3-b]pyrazine]: the half-maximal inhibitory concentration (IC50) in experiment [1] fell in the range of 0.0001 to 1 µM. The GI50 in experiment [2] lay in the range of 0.0001 to 1 µM.
In experiment [1], `CC(C)(C)n1cnc2ccc(-c3c[nH]c4ncc(-c5cccc(N6CCNCC6)c5)nc34)cc21` [P-302, 7-(3-tert-butylbenzimidazol-5-yl)-2-(3-piperazin-1-ylphenyl)-5H-pyrrolo[2,3-b]pyrazine] came in with an IC50 of 0.0001 to 1 µM. In addition, the GI50 in experiment [2] lay in the range of 0.0001 to 1 µM.
Molecule `CC(C)(C)n1cnc2ccc(-c3c[nH]c4ncc(-c5ccnc(N6CCNCC6)c5)nc34)cc21` [P-307, 7-(3-tert-butylbenzimidazol-5-yl)-2-(2-piperazin-1-yl-4-pyridyl)-5H-pyrrolo[2,3-b]pyrazine] showed a half-maximal inhibitory concentration (IC50) in experiment [1] of 0.0001 to 1 µM. For the same molecule, the GI50 in experiment [2] is 0.0001 to 1 µM.
In turn, `Cn1cnc2ccc(-c3c[nH]c4ncc(C(=O)Nc5cccc(F)c5)cc34)cc21` [P-177, N-(3-fluorophenyl)-3-(3-methylbenzimidazol-5-yl)-1H-pyrrolo[2,3-b]pyridine-5-carboxamide] showed a half-inhibitory concentration (IC50) in experiment [1] of 0.0001 to 1 µM. In experiment [2], the GI50 lay within 0.0001 to 1 µM.
In the case of `CN1CCN(c2ccc(-c3cnc4[nH]cc(-c5ccc6ncn(C7CCCNC7)c6c5)c4n3)cn2)CC1` (centres unmarked) [P-334, 2-[6-(4-methylpiperazin-1-yl)-3-pyridyl]-7-[3-(3-piperidyl)benzimidazol-5-yl]-5H-pyrrolo[2,3-b]pyrazine], in experiment [3], the IC50 was 0.0001 to 1 µM. For the same molecule, in experiment [2], the GI50 lay within 0.0001 to 1 µM.
In experiment [1], `COc1cnc2[nH]cc(-c3ccc4ncn(-c5ccc(F)c(Cl)c5)c4c3)c2c1` [P-109, 1-(3-chloro-4-fluoro-phenyl)-6-(5-methoxy-1H-pyrrolo[2,3-b]pyridin-3-yl)benzimidazole] yielded an IC50 of 0.0001 to 1 µM. For the same molecule, the GI50 in experiment [2] was 0.0001 to 1 µM.

The record behind these values is patent US10160755B2 (Plexxikon Inc., priority 2015, dated 2018).
